Structures are written as SMILES.

The target of this assay is T1, Xenopus laevis Aurora B/INCENP complex (Xenopus laevis, UniProt Q6DE08).
T1 construct: equipped at the N-terminal position with a GST tag (amino acids 60-361); GST (N, cleaved yes); made in house; host or cells: E. coli BL21 (DE3)
T1 sequence (Q6DE08 60-361): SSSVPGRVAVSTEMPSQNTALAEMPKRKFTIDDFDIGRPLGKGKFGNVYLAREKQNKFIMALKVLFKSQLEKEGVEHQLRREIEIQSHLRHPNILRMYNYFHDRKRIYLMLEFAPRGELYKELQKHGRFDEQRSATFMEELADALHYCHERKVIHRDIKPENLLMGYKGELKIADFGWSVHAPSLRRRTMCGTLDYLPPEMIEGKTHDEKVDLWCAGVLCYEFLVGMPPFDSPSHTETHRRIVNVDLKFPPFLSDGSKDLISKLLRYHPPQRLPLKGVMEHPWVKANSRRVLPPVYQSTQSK
T1 sequence (O13024 790-847 partner limits assumed): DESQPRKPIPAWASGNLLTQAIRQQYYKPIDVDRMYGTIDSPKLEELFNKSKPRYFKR
Kind of assay: Aurora-B kinase assay (radioactive enzyme inhibition assay). The following applies: test substance at 1 μM; percentage of the positive control (maximum value without test substance). The assay is classed as biochemical. The text has this:
Example Aurora-B Kinase Assay
A radioactive enzyme inhibition assay was developed using E. coli-expressed recombinant Xenopus laevis Aurora B wild-type protein equipped at the N-terminal position with a GST tag (amino acids 60-361) in a complex with Xenopus laevis INCENP (amino acids 790-847), which is obtained from bacteria and purified. In equivalent manner a Xenopus laevis Aurora B mutant (G96V) in a complex with Xenopus laevis INCENP^790-847 may also be used.
Expression and Purification
The coding sequence for Aurora-B^60-361 from Xenopus laevis is cloned into a modified version of pGEX-6T (Amersham Biotech) via BamHI and SalI cutting sites. The vector contains two cloning cassettes which are separated by a ribosomal binding site, allowing bi-cistronic expression. In this configuration Xenopus laevis Aurora B is expressed by the first cassette, and the Xenopus laevis INCENP^790-847 is expressed by the second cassette. The resulting vector is pAUB-IN^847.
First of all the E. coli strain BL21 (DE3) is co-transformed with pUBS520 helper plasmid and pAUB-IN^847, after which protein expression is induced using 0.3 mM IPTG at an OD600 of 0.45-0.7. The expression is then continued for approx. 12-16 h at 23-25° C. with agitation.
The bacteria are then removed by centrifuging and the pellet is lysed in lysis buffer (50 mM Tris/Cl pH 7.6, 300 mM NaCl, 1 mM DTT, 1 mM EDTA, 5% glycerol, Roche Complete Protease Inhibitor tablets) using ultrasound, using 20-30 mL lysis buffer per liter of E. coli culture. The lysed material is freed from debris by centrifugation (12000 rpm, 45-60 min, JA20 rotor). The supernatant is incubated with 300 μL of equilibrated GST Sepharose Fast Flow (Amersham Biosciences) per liter of E. coli culture for 4-5 h at 4° C. Then the column material is washed with 30 volumes of lysis buffer and then equilibrated with 30 volumes of cleavage buffer (50 mM Tris/Cl pH 7.6, 150 mM NaCl, 1 mM DTT, 1 mM EDTA). To cleave the GST tag from Aurora B, 10 units of Prescission Protease (Amersham Biosciences) are used per milligram of substrate and the mixture is incubated for 16 h at 4° C. The supernatant which contains the cleavage product is loaded onto a 6 mL Resource Q column (Amersham Biosciences) equilibrated with ion exchange buffer (50 mM Tris/Cl pH 7.6, 150 mM NaCl, 1 mM DTT, 1 mM EDTA). The Aurora B/INCENP complex is caught as it flows through, then concentrated and loaded onto a Superdex 200 size exclusion chromatography (SEC) column equilibrated with SEC buffer (10 mM Tris/Cl pH 7.6, 150 mM NaCl, 1 mM DTT, 1 mM EDTA). Fractions which contain the AuroraB/INCENP complex are collected and concentrated using Vivaspin concentrators (molecular weight exclusion 3000-5000 Da) to a final concentration of 12 mg/mL. Aliquots (e.g. 240 ng/μL) for kinase assays are transferred from this stock solution into freezing buffer (50 mM Tris/Cl pH 8.0, 150 mM NaCl, 0.1 mM EDTA, 0.03% Brij-35, 10% glycerol, 1 mM DTT) and stored at −80° C.
Test substances are placed in a polypropylene dish (96 wells, Greiner #655 201), in order to cover a concentration frame of 10 μM-0.0001 μM. The final concentration of DMSO in the assay is 5%. 30 μL of protein mix (50 mM tris/Cl pH 7.5, 25 mM MgCl2, 25 mM NaCl, 167 μM ATP, 10 ng Xenopus laevis Aurora B/INCENP complex in freezing buffer) are pipetted into the 10 μl of test substance provided in 25% DMSO and this is incubated for 15 min at RT. Then 10 μL of peptide mix (100 mM tris/Cl pH 7.5, 50 mM MgCl2, 50 mM NaCl, 5 μM NaF, 5 μM DTT, 1 μCi gamma-P33-ATP [Amersham], 50 μM substrate peptide [biotin-[…] or multimers thereof, or biotin-[…] or multimers thereof, or biotin-[…]]) are added. The reaction is incubated for 75 min (ambient temperature) and stopped by the addition of 180 μL of 6.4% trichloroacetic acid and incubated for 20 min on ice. […]
The term remaining activity denotes the signal under treatment as a percentage of the control signal. Take `CCNc1cnc(-c2ccc3c(c2)NC(=O)/C3=C(\Nc2ccc(CN(C)C)cc2)c2ccccc2)cn1` [Example 1]: the remaining activity at 1 µM was found to be 15.2%.
Regarding `CN(C)Cc1ccc(N/C(=C2\C(=O)Nc3cc(-c4cnc(NCC5CC5)cn4)ccc32)c2ccccc2)cc1` [Example 2], the remaining activity at 1 µM turned out to be 12.6%.
Regarding `CCNc1ccc(-c2ccc3c(c2)NC(=O)/C3=C(\Nc2ccc(CN(C)C)cc2)c2ccccc2)cn1` [Example 5], the remaining activity at 1 µM amounted to 7.08%.
Consider `CN(C)Cc1ccc(N/C(=C2\C(=O)Nc3cc(-c4ccc(N(C)C)nc4)ccc32)c2ccccc2)cc1` [Example 6], for which the remaining activity at 1 µM was found to be 11.4%.
As for `CNc1ccc(-c2ccc3c(c2)NC(=O)/C3=C(\Nc2ccc(CN(C)C)cc2)c2ccccc2)cn1` [Example 8], the remaining activity at 1 µM is 15.6%.
With `CN(C)Cc1ccc(N/C(=C2\C(=O)Nc3cc(-c4cnc(N5CCCC5)nc4)ccc32)c2ccccc2)cc1` [Example 10] the figure was 10.6%.
Regarding `CN(C)Cc1ccc(N/C(=C2\C(=O)Nc3cc(-c4ccc(S(C)(=O)=O)cc4)ccc32)c2ccccc2)cc1` [Example 12], the remaining activity at 1 µM is 40%.
The same measure for `CN(C)Cc1ccc(N/C(=C2\C(=O)Nc3cc(-c4ccc(N5CCOCC5)nc4)ccc32)c2ccccc2)cc1` [Example 14]: 20.7%.
The same measure for `CN(C)Cc1ccc(N/C(=C2\C(=O)Nc3cc(-c4ccc(OCC5CC5)nc4)ccc32)c2ccccc2)cc1` [Example 15]: 22%.
The same measure for `Cc1ccc(-c2ccc3c(c2)NC(=O)/C3=C(\Nc2ccc(CN(C)C)cc2)c2ccccc2)cn1` [Example 17]: 21.1%; for `Cc1cnccc1-c1ccc2c(c1)NC(=O)/C2=C(\Nc1ccc(CN(C)C)cc1)c1ccccc1` [Example 20]: 107%.
As to `CN(C)Cc1ccc(N/C(=C2\C(=O)Nc3cc(-c4ccccc4NS(C)(=O)=O)ccc32)c2ccccc2)cc1` [Example 23], the remaining activity at 1 µM came to 70.6%.
The same measure for `CN(C)Cc1ccc(N/C(=C2\C(=O)Nc3cc(-c4cccc(C#N)c4)ccc32)c2ccccc2)cc1` [Example 39]: 30.9%; for `CN(C)Cc1ccc(N/C(=C2\C(=O)Nc3cc(-c4cnc5ccccc5c4)ccc32)c2ccccc2)cc1` [Example 40]: 34.7%.
With `CC(=O)c1cncc(-c2ccc3c(c2)NC(=O)/C3=C(\Nc2ccc(CN(C)C)cc2)c2ccccc2)c1` [Example 41] the figure was 13.5%.
With `CN(C)Cc1ccc(N/C(=C2\C(=O)Nc3cc(-c4cnc(C(=O)O)nc4)ccc32)c2ccccc2)cc1` [Example 42] the figure was 139%.
Consider `CN(C)Cc1ccc(N/C(=C2\C(=O)Nc3cc(-c4ccc(C(N)=O)cc4)ccc32)c2ccccc2)cc1` [Example 43], for which the remaining activity at 1 µM is 102%.
The same measure for `CN(C)Cc1ccc(N/C(=C2\C(=O)Nc3cc(-c4cnc(N(C)C)nc4)ccc32)c2ccccc2)cc1` [Example 44]: 27.9%.
With `CN(C)Cc1ccc(N/C(=C2\C(=O)Nc3cc(-c4cnc(NC5CCC5)nc4)ccc32)c2ccccc2)cc1` [Example 45] the figure was 1.76%.
The same measure for `CC(C)Nc1ncc(-c2ccc3c(c2)NC(=O)/C3=C(\Nc2ccc(CN(C)C)cc2)c2ccccc2)cn1` [Example 46]: 2.13%; for `CN(C)Cc1ccc(N/C(=C2\C(=O)Nc3cc(-c4cnc(NCC(F)F)nc4)ccc32)c2ccccc2)cc1` [Example 47]: 1.59%.
For `CN(C)Cc1ccc(N/C(=C2\C(=O)Nc3cc(-c4cnc(NC5CC5)nc4)ccc32)c2ccccc2)cc1` [Example 48], the remaining activity at 1 µM came out at 3.44%.
On to `CCCNc1ncc(-c2ccc3c(c2)NC(=O)/C3=C(\Nc2ccc(CN(C)C)cc2)c2ccccc2)cn1` [Example 50], for which the remaining activity at 1 µM worked out at 2.79%.
The same measure for `CN(C)Cc1ccc(N/C(=C2\C(=O)Nc3cc(-c4cnc(NCC5CC5)nc4)ccc32)c2ccccc2)cc1` [Example 51]: 3.84%; for `CCNc1ncc(-c2ccc3c(c2)NC(=O)/C3=C(\Nc2ccc(CN(C)C)cc2)c2ccccc2)cn1` [Example 52]: 2.78%.
With `CN(C)Cc1ccc(N/C(=C2\C(=O)Nc3cc(-c4ccc(C(=O)O)nc4)ccc32)c2ccccc2)cc1` [Example 54] the figure was 157%; with `CN(C)Cc1ccc(N/C(=C2\C(=O)Nc3cc(-c4ccc(NCC5CC5)nc4)ccc32)c2ccccc2)cc1` [Example 55], 5.91%; with `CN(C)Cc1ccc(N/C(=C2\C(=O)Nc3cc(-c4ccc(NC5CCC5)nc4)ccc32)c2ccccc2)cc1` [Example 56], 5.45%.
The same measure for `CCCNc1ccc(-c2ccc3c(c2)NC(=O)/C3=C(\Nc2ccc(CN(C)C)cc2)c2ccccc2)cn1` [Example 57]: 5.74%; for `CC(C)Nc1ccc(-c2ccc3c(c2)NC(=O)/C3=C(\Nc2ccc(CN(C)C)cc2)c2ccccc2)cn1` [Example 58]: 8.01%; for `CN(C)Cc1ccc(N/C(=C2\C(=O)Nc3cc(-c4ccc(NC5CC5)nc4)ccc32)c2ccccc2)cc1` [Example 59]: 9.19%.
Consider `CN(C)Cc1ccc(N/C(=C2\C(=O)Nc3cc(-c4ccc5c(c4)CC(=O)N5)ccc32)c2ccccc2)cc1` [Example 60], for which the remaining activity at 1 µM is 26.3%.
Regarding `CN(C)Cc1ccc(N/C(=C2\C(=O)Nc3cc(-c4cn[nH]c4)ccc32)c2ccccc2)cc1` [Example 61], the remaining activity at 1 µM turned out to be 14.1%.
With `CC(=O)Nc1ccc(-c2ccc3c(c2)NC(=O)/C3=C(\Nc2ccc(CN(C)C)cc2)c2ccccc2)cn1` [Example 62], the remaining activity at 1 µM was determined as 1.96%.
With `COc1cncc(-c2ccc3c(c2)NC(=O)/C3=C(\Nc2ccc(CN(C)C)cc2)c2ccccc2)c1` [Example 63] the figure was 11%; with `CN(C)Cc1ccc(N/C(=C2\C(=O)Nc3cc(-c4cccc(-n5cccn5)c4)ccc32)c2ccccc2)cc1` [Example 64], 13.4%.
The same measure for `CN(C)Cc1ccc(N/C(=C2\C(=O)Nc3cc(-c4cccc(S(=O)(=O)N(C)C)c4)ccc32)c2ccccc2)cc1` [Example 65]: 27.6%.
The same measure for `CN(C)Cc1ccc(N/C(=C2\C(=O)Nc3cc(-c4ccc(N)nc4)ccc32)c2ccccc2)cc1` [Example 66]: 18.3%.
For the compound `CN(C)Cc1ccc(N/C(=C2\C(=O)Nc3cc(-c4cccc(S(N)(=O)=O)c4)ccc32)c2ccccc2)cc1` [Example 67], the remaining activity at 1 µM stood at 5.48%.
The same measure for `CN(C)Cc1ccc(N/C(=C2\C(=O)Nc3cc(-c4cccc(C(N)=O)c4)ccc32)c2ccccc2)cc1` [Example 68]: 18.1%; for `CC(=O)Nc1cccc(-c2ccc3c(c2)NC(=O)/C3=C(\Nc2ccc(CN(C)C)cc2)c2ccccc2)c1` [Example 69]: 17.2%; for `COc1ccc(-c2ccc3c(c2)NC(=O)/C3=C(\Nc2ccc(CN(C)C)cc2)c2ccccc2)cn1` [Example 70]: 17.3%.
The same measure for `CN(C)Cc1ccc(N/C(=C2\C(=O)Nc3cc(-c4cccnc4)ccc32)c2ccccc2)cc1` [Example 71]: 24.5%.

Source of the values: patent US8853420B2, “Compounds” (Boehringer Ingelheim International GmbH, priority 2008, dated 2014).
